# Legend:
# HUVEC cells = assay: Aβ accumulation in HUVEC cells treated with phosphoramidon; assay type: cell-based, human; conditions: high doses of phosphoramidon
# Protocol: (§1) Human and guinea pig Aβ40 or Aβ42 was measured in plasma by sandwich ELISA as previously described (Suzuki et al., 1994, Science, 264:1336-1340) using the BAN-50/BA-27 or BAN-50/BC-05 antibody systems, respectively (Takeda; Japan). Hamster Aβ40- or Aβ42-derived from CHO cells was measured using the BNT-77/BA-27 or BNT-77/BC-05 antibody systems, respectively. Aβ concentration in samples was determined by comparison to synthetic Aβ40 or Aβ42 standards (Bachem, Switzerland). Data was obtained from triplicate wells.
# (§2) In particular, the sandwich ELISA used herein was performed as follows: 96-well microtiter plates were coated overnight at 4° C. with 100 μl of a 5 μg/ml dilution of primary antibody in sodium carbonate coating buffer (SCCB; 0.1 M Na2CO3, pH 9.6). […] Plates were read at 450 nm in a SpectraMax Plus spectrophotometer (Molecular Devices; Sunnyvale, Calif.) and analyzed by SOFTmax® PRO software. Aβ40 or Aβ42 were quantitated by comparison with the values obtained for each synthetic Aβ standard from the same plate.
# Cells were passaged into 6-well plates one day prior to treatment and grown to confluence. […] After treatment, the culture medium was harvested, spun at 14,000 xg, and the supernatant analyzed for Aβ40 or Aβ42 using sandwich ELISA and for secreted APP using Western blot. […]
# [1] = tested on: ECE-transfected CHO cells; assay: Removal of synthetic Aβ40 spiked into culture medium of ECE-transfected CHO cells; assay type: cell-based, hamster
# Protocol: as §1, §2
# To determine whether extracellular removal of Aβ accounted, at least in part, for the dramatic decrease in extracellular Aβ concentration in ECE-transfected cell lines, synthetic Aβ40 was spiked into the culture medium in the presence or absence of phosphoramidon and the amount of unhydrolyzed Aβ was determined at 6 or 24 hrs by sandwich ELISA. […]
# neuronal cell lines = conditions: previously shown; cited from earlier work
structure (smiles),measurement,setting,value
CC(C)C[C@H](NP(=O)(O)O[C@@H]1O[C@@H](C)[C@H](O)[C@@H](O)[C@H]1O)C(=O)N[C@@H](Cc1c[nH]c2ccccc12)C(=O)O [phosphoramidon],Aβ accumulation,HUVEC cells,virtually undetectable levels of Aβ accumulation unless treated with high doses of phosphoramidon
same,extracellular concentration of synthetic Aβ,"[1]; 6 hr incubation, ECE-transfected and untransfected CHO cells, spiked synthetic Aβ40",not affected
same,ECE-1a-induced increase in Aβ removal,"[1]; 24 hr, ECE-1a-transfected CHO cells treated with phosphoramidon",completely attenuated
same,increase in the concentration of Aβ40 and Aβ42 in the conditioned medium,neuronal cell lines,2- to 3 fold
